This note sets out measurements from ChEMBL document CHEMBL1142603, “Manzamine B and E and ircinal A related alkaloids from an Indonesian Acanthostrongylophora sponge and their activity against infectious, tropical parasitic, and Alzheimer's diseases” (J Nat Prod, 2006).

By IC50 is commonly meant the midpoint of a concentration-inhibition curve. In general, inhibition refers to the percentage by which the read-out fell short of the control. By MIC is commonly meant the smallest concentration in the dilution series that meets the test's criterion for growth inhibition. Broadly, the IC90 is the concentration at which the effect reaches the 90% level.

Values after ≈ are worked out from the molar mass of the structure shown. Active and inactive are the calls of the source.

The test system of data set [1] is Plasmodium falciparum. The data set is described as follows: Antimalarial activity after 72 hrs against chloroquine-sensitive Plasmodium falciparum D6 in erythrocytes at […] by LDH reporter assay. It counts as functional, organism-based. For orientation: A reporter such as luciferase makes a cellular process visible.
In data set [2] the test system is Staphylococcus aureus. The data set is described as follows: Antibacterial activity against Staphylococcus aureus. Type of data set: functional, organism-based.
Data set [3] concerns Vero. The experiment in a line: Cytotoxicity against african green monkey Vero cells at 4.76 ug/mL by neutral red assay. Type of data set: cell-based. The conditions noted are these: chlorocebus sabaeus.
The test system of data set [4] is Leishmania donovani. The data set is described as follows: Antileishmanial activity against Leishmania donovani at 40 ug/mL after 72 hrs by alamar blue assay. It counts as functional, organism-based. (In general: Resazurin is reduced to fluorescent resorufin, in cell work by metabolically active cells.)
Data set [5] concerns Human immunodeficiency virus 1. The experiment in a line: Antiviral activity against HIV1 3B assessed as reverse transcriptase activity by enzyme immunoassay. It counts as functional, organism-based. To be noted: Human immunodeficiency virus 1, 3B.
The subject of data set [6] is Plasmodium falciparum. The experiment in a line: Antimalarial activity after 72 hrs against chloroquine-resistant Plasmodium falciparum W2 in erythrocytes at […] by LDH reporter assay. Type of data set: functional, organism-based.
Data set [7] deals with T1, Acetylcholinesterase (Bos taurus) (UniProt P23795).
T1 sequence (whole entry): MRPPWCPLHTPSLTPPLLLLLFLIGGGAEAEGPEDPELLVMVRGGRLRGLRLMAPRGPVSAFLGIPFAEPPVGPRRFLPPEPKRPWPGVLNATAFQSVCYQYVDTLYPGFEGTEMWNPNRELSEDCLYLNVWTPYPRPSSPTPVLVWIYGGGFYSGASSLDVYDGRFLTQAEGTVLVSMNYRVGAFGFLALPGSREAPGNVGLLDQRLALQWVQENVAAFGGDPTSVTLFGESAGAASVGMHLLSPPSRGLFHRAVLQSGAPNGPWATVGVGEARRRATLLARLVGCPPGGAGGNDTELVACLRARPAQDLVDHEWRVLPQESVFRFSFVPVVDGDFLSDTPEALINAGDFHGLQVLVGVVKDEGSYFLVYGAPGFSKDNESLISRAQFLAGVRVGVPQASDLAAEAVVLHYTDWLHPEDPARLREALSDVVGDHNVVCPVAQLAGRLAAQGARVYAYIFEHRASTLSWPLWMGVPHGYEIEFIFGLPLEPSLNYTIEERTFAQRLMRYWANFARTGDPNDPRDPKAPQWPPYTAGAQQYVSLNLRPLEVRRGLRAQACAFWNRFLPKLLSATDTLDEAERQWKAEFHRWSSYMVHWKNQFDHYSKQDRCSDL
The data set is described as follows: Inhibition of bovine AChE.

The test system of data set [8] is Mycobacterium intracellulare. The experiment in a line: Antibacterial activity against Mycobacterium intracellular by alamar blue assay. Type of data set: functional, organism-based.
The test system of the next data set is Cryptococcus neoformans. The experiment in a line: Antifungal activity against Cryptococcus neoformans. It counts as functional, organism-based.
The target of data set [9] is Beta-secretase 1 (Homo sapiens) (UniProt P56817). The data set is described as follows: Inhibition of human recombinant BACE1 by FRET-based assay.
For data set [10], the system named is Staphylococcus aureus. The data set is described as follows: Antibacterial activity against methicillin-resistant Staphylococcus aureus. It counts as functional, organism-based.
The subject of data set [11] is Plasmodium falciparum. The data set is described as follows: Antimalarial activity after 72 hrs against chloroquine-resistant Plasmodium falciparum W2 in erythrocytes by LDH reporter assay. The conditions noted are these: W2, 72 h. Type of data set: functional, organism-based.
Data set [12] relates to Plasmodium falciparum. The experiment in a line: Antimalarial activity after 72 hrs against chloroquine-sensitive Plasmodium falciparum D6 in erythrocytes by LDH reporter assay. To be noted: D6, 72 h. Type of data set: functional, organism-based.
For data set [13], the system named is Vero. The data set is described as follows: Cytotoxicity against african green monkey Vero cells by neutral red assay. Type of data set: cell-based. To be noted: chlorocebus sabaeus.
Data set [14] deals with Glycogen synthase kinase-3 beta (Homo sapiens) (UniProt P49841). The experiment in a line: Inhibition of GSK3-beta in human SH-SY5Y cells assessed as inhibition of tau phosphorylation at Ser396 at 5 uM after 24 hrs by ELISA sandwich method. Type of data set: cell-based. A general note: ELISA stands for enzyme-linked immunosorbent assay.
The subject of a further data set is SH-SY5Y. The experiment in a line: Cytotoxicity against human SH-SY5Y cells at 5 uM. It counts as cell-based.
The target of data set [15] is Glycogen synthase kinase-3 beta (Homo sapiens) (UniProt P49841). The data set is described as follows: Inhibition of human recombinant GSK3-beta assessed as incorporation of [33P]gammaATP into G2S peptide at 25 uM.
Data set [16] has as its system Mycobacterium tuberculosis. The experiment in a line: Antituberculosis activity against Mycobacterium tuberculosis H37Rv after 24 hrs by alamar blue assay. It counts as functional.
The test system of data set [17] is Voltage-gated calcium channel. The data set is described as follows: Blocking of calcium channel in human SH-SY5Y cells assessed as inhibition of KCL depolarization-induced cytosolic calcium increase at 1 uM. It counts as cell-based.
The subject of data set [18] is Leishmania donovani. The data set is described as follows: Antileishmanial activity against Leishmania donovani after 72 hrs by alamar blue assay. Type of data set: functional, organism-based.
For data set [19], the system named is Mycobacterium tuberculosis. The experiment in a line: Antituberculosis activity against Mycobacterium tuberculosis H37Rv at 64 ug/mL after 24 hrs by alamar blue assay. Type of data set: functional, organism-based.
The nature of data set [20]: Toxicity against medaka eggs assessed as eggs failing to hatch up to 10.6 uM after 11 days relative to control. Further details: species or system Egg. The conditions noted are these: oryzias latipes, 264 h.
Data set [21] is described as follows: Toxicity against medaka eggs assessed as eggs failing to hatch after 11 days. On the set-up: species or system Egg. To be noted: oryzias latipes, 264 h.
Data set [22] in a line: Selectivity ratio of LD50 for medaka fry to ED50 for medaka eggs. The conditions noted are these: oryzias latipes.
Data set [23] in a line: Toxicity against medaka fry after 96 hrs. The conditions noted are these: oryzias latipes, in vivo; read-out: LD50. It counts as organism-based.

Glycogen synthase kinase-3 beta (Homo sapiens), sequence (P49841 whole entry, looked up): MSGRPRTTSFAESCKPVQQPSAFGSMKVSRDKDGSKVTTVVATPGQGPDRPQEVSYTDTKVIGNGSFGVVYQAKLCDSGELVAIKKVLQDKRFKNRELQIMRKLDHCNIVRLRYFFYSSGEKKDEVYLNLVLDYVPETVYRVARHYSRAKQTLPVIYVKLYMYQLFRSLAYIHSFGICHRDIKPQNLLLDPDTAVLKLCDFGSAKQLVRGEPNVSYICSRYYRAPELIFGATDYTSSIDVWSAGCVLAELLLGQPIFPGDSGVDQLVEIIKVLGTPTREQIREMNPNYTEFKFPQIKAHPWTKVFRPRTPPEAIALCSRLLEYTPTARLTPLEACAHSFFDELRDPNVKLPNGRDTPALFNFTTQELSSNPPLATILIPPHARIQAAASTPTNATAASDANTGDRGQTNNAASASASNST
Beta-secretase 1 (Homo sapiens), sequence (P56817 whole entry): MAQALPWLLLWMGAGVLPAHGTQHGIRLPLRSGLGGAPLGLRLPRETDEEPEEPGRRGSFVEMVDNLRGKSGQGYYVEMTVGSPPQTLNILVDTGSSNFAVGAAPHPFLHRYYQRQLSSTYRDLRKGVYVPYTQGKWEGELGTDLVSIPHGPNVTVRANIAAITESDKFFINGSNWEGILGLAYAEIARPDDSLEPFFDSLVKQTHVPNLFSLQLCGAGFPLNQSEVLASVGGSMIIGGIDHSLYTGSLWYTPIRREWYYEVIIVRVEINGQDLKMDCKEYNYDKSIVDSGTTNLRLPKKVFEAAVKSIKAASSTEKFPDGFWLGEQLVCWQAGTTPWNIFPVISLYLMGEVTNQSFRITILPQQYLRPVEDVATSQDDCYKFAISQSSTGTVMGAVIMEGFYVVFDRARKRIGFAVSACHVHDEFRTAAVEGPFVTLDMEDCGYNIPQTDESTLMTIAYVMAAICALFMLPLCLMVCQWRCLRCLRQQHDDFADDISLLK

Regarding `O=C1CCCN2[C@@H]3[C@@]45CN6CCCC/C=C\CC[C@@]3(C=C(c3nccc7c3[nH]c3ccccc37)[C@@H]4CC6)O[C@]2(CC1)C5`, the result (with Plasmodium falciparum [1]; in the data set on Staphylococcus aureus [2]; with Leishmania donovani [4]; in the data set on Plasmodium falciparum [6]; in data set [7]; in data set [8]) was inactive. In addition, the result (in the data set on Cryptococcus neoformans; in [9]; with Staphylococcus aureus [10]) was inactive. In addition, in the data set on Vero [3], the Activity entry was “Non-toxic”. In addition, the IC50 in [5] is 17.5 µg/mL (≈ 31.1 µM).
In the case of `Oc1cccc2c1[nH]c1c(C3=C[C@@]4(O)CC/C=C\CCCCN5CC[C@@H]3[C@]3(CC6/C=C\CCCCN6[C@H]34)C5)nccc12` (stereo not given in full), the IC50 in the data set with Plasmodium falciparum [11] is 0.008 µg/mL (≈ 0.0142 µM); in the data set on Plasmodium falciparum [12] it was 0.006 µg/mL (≈ 0.0106 µM); in the data set on Vero [13], 1.1 µg/mL (≈ 1.95 µM); with Staphylococcus aureus [2], 0.9 µg/mL (≈ 1.59 µM); in [5] it was 0.59 µg/mL (≈ 1.04 µM); in data set [8] it was 1 µg/mL (≈ 1.77 µM). The IC50 with Leishmania donovani [18] stood at 6.2 µg/mL (≈ 11 µM); in the data set on Cryptococcus neoformans it was 3 µg/mL (≈ 5.31 µM); with Staphylococcus aureus [10] it was 4 µg/mL (≈ 7.08 µM). In addition, in data set [14], the result was Active. Further, the Activity result in the data set on SH-SY5Y is reported as “Non-toxic”. The inhibition in [15] worked out at 86.7%. Further, the outcome in data set [7] and in data set [9] was inactive. In addition, the MIC in [16] worked out at 0.9 µg/mL (≈ 1.59 µM). Also, the “inhibition (INH)” value in data set [17] worked out at 20%. In the data set with Leishmania donovani [18], this compound came in with a 90% effect concentration (IC90) of 11 µg/mL (≈ 19.5 µM).
`C1=C(c2nccc3c2[nH]c2ccccc23)[C@@H]2CCN3CCCC/C=C\CC[C@]14O[C@@]15/C=C\CCCCN1[C@@H]4[C@]2(C3)C5` [12,34-OXAMANZAMINE A]: the half-maximal inhibitory concentration (IC50) amounted to 4.76 µg/mL (≈ 8.71 µM) with Plasmodium falciparum [12] and 14 µg/mL (≈ 25.6 µM) in the data set on Leishmania donovani [18]. Further, the outcome (in the data set with Staphylococcus aureus [2]; in the data set on Plasmodium falciparum [6]; in data set [19]; in [7]; in [8]; with Cryptococcus neoformans) was inactive. The result (in data set [9]; with Staphylococcus aureus [10]) was inactive. Also, in the data set with Vero [3], the Activity result is “Non-toxic”. In the data set with Leishmania donovani [18], this compound registered an IC90 of 40 µg/mL (≈ 73.2 µM).
As for `CCN(CC)CCCC(C)Nc1ccnc2cc(Cl)ccc12` (stereo not given) [CHLOROQUINE], the Activity result in data set [20] is recorded as “Not Active”.
Turning to `O[C@]12C=C(c3nccc4c3[nH]c3ccccc34)[C@@H]3CCN(CCCC/C=C\CC1)C[C@@]31C[C@@H]3/C=C\CCCCN3[C@H]12` [MANZAMINE A], in data set [21], the ED50 was 0.17 µM. The IC50 in the data set with Plasmodium falciparum [11] was 0.008 µg/mL (≈ 0.0146 µM); in the data set on Plasmodium falciparum [12], 0.0045 µg/mL (≈ 0.0082 µM); with Vero [13], 1.2 µg/mL (≈ 2.19 µM); in the data set on Staphylococcus aureus [2] it was 0.5 µg/mL (≈ 0.911 µM); in data set [5] it was 4.2 µg/mL (≈ 7.65 µM); in [8], 0.35 µg/mL (≈ 0.638 µM). Further, the IC50 is 0.9 µg/mL (≈ 1.64 µM) in the data set with Leishmania donovani [18], 3 µg/mL (≈ 5.47 µM) with Cryptococcus neoformans and 0.7 µg/mL (≈ 1.28 µM) in the data set on Staphylococcus aureus [10]. The outcome in data set [14] was Active. Further, the selectivity ratio in [22] turned out to be 2.3. Moreover, in the data set with SH-SY5Y, the Activity result is “Non-toxic”. Besides, in [15], the inhibition stood at 73.2%. In data set [23], the LC50 at 96 h turned out to be 0.074 µM. The outcome in data set [7] and in data set [9] was inactive. Also, it took 1.5 µg/mL (≈ 2.73 µM) to inhibit growth in [16] (MIC). In addition, in data set [17], the “inhibition (INH)” value came to 20%. This compound also gave a concentration for an effect of 90% (IC90) with Leishmania donovani [18] of 1.8 µg/mL (≈ 3.28 µM).
As for `O[C@@H]1CCCN2CC[C@@H]1O[C@@]13CC[C@@H](OC[C@]45CN6CCCC/C=C\CC[C@](O)(C=C(c7nccc8c7[nH]c7ccccc78)[C@@H]4CC6)[C@H]25)[C@@H](O)CCN1[C@@H]1[C@]2(CN4CCCC/C=C\CC[C@]1(O)C=C(c1nccc5c1[nH]c1ccccc15)[C@@H]2CC4)C3` [NEO-KAULUAMINE], in data set [21], the ED50 is 2.45 µM. Further, the selectivity ratio in data set [22] came to 3. The inhibition in data set [15] was 82%. Moreover, the LC50 at 96 h in [23] was found to be 0.82 µM.
